From US8158621B2, “Methods of treating or preventing autoimmune diseases with 2,4-pyrimidinediamine compounds” (Rigel Pharmaceuticals, Inc., priority 2002, dated 2012) come the findings set out here.

The structures appear in SMILES notation.

One test has as its system Human Jurkat T-cells (clone N). Briefly: Jurkat T-cell activation (anti-TCR, CD69 upregulation).
Conditions: not given
The class given is cell-based. In outline: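 Jurkat cells in RPMI + 5% FBS preincubated with compound 1 h at 37 °C, then stimulated with anti-TCR C305 at 500 ng/ml for 20 h. CD69 surface expression stained with anti-CD69-APC and read by flow cytometry; IC50 versus solvent-only control.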
`CC(C)Oc1ccc(Nc2nc(Nc3ccc4oc(CO)cc4c3)ncc2F)cc1` [Compound R926705] showed an IC50 of 2.65 µM.
For the compound `CNC(=O)COc1cccc(Nc2ncc(F)c(Nc3ccc4cc[nH]c4c3)n2)c1` [Compound R926745], the IC50 was determined as 1.48 µM.
Take `Oc1cccc(Nc2nc(Nc3ccc(OCc4nc(-c5ccccc5)no4)cc3)ncc2F)c1` [Compound R935134]: the IC50 is greater than 10 µM.
`CNC(=O)c1cc2cc(Nc3ncc(F)c(Nc4ccc5c(c4)OCCO5)n3)ccc2o1` [Compound R926496] gave an IC50 of 4.39 µM.
Compound `CNC(=O)c1cc2cc(Nc3ncc(F)c(Nc4ccc(C(C)(C)C)cc4)n3)ccc2o1` [Compound R926494] yielded an IC50 of 12.5 µM.
Same read-out and setting: as for `Cc1noc(COc2ccc(Nc3nc(Nc4ccc(OC(C)C)cc4)ncc3F)cc2)n1` [Compound R935144], the figure is greater than 10 µM.

Another test concerns cultured human mast cells (CHMC). Kind of test: CHMC high cell density IgE activation: hexos.
Conditions: not given
In kind it is cell-based. On the procedure: (§1) After sensitizing, cells are counted, pelleted (1000 rpm, 5-10 minutes), and resuspended at 1-2 ×10^6 cells/ml in MT buffer. Add 100 ul of cell suspension to each well and 100 ul of compound dilutions. The final vehicle concentration is 0.5% DMSO. Incubate at 37° C. (5% CO2) for 1 hour. After 1 hour of compound treatment, stimulate cells with 6× anti-IgE. Mix wells with the cells and allow plates to incubate at 37° C. (5% CO2) for one hour. After 1 hour incubation, pellet cells (10 minutes, 1000 RPM) and collect 200 ul per well of the supernatant, being careful not to disturb pellet. Place the supernatant plate on ice. During the 7-hour step (see next) perform tryptase assay on supernatant that had been diluted 1:500. Resuspend cell pellet in 240 ul of CM media containing 0.5% DMSO and corresponding concentration of compound. Incubate CHMC cells for 7 hours at 37° C. (5% CO2). After incubation, pellet cells (1000 RPM, 10 minutes) and collect 225 ul per well and place in −80° C. until ready to perform ELISAS. ELISAS are performed on appropriately diluted samples (determined empirically for each donor cell population so that the sample measurement falls within the standard curve) following the supplier's instructions.
Add 50 uL of BMMC cell supernatant (see above) to the hexoseaminidase substrate, place at 37° C. for 30 minutes and read the plate at 5, 10, 15, and 30 minutes on a spectrophotometer.
In turn, `CC(C)Oc1ccc(Nc2nc(Nc3ccc4oc(CO)cc4c3)ncc2F)cc1` [Compound R926705] had an IC50 of 1010 nM.
Turning to `CNC(=O)c1cc2cc(Nc3ncc(F)c(Nc4ccc5c(c4)OCCO5)n3)ccc2o1` [Compound R926496], the IC50 was found to be 429 nM.
`CNC(=O)c1cc2cc(Nc3ncc(F)c(Nc4ccc(C(C)(C)C)cc4)n3)ccc2o1` [Compound R926494] came in with an IC50 of 640 nM.

The next test shares this test system. Briefly: CHMC low cell density IgE activation: LTC4 assay. The class given is cell-based. The note with it: anti-IgE activation, LTC4 release. On the procedure:
Pellet CHMC cells (980 rpm, 10 min) and resuspend in pre-warmed MT. Add 65 ul of cells to each 96-well plate. Depending on the degranulation activity for each particular CHMC donor, load 1000-1500 cells/well. Mix four times followed by a 1 hr incubation at 37° C. […] Stimulate cells by adding 25 ul of 6× anti-IgE solution to the appropriate plates. Add 25 ul MT to un-stimulated control wells. Mix twice following addition of the anti-IgE. Incubate at 37° C. for 30 minutes. […] Spin plates at 1000 rpm for 10 min to pellet cells. Transfer 25 ul of supernatant to a 96-well black bottom plate and add 100 ul of freshly diluted tryptase substrate solution to each well. Incubate plates at room temperature for 30 min.
Leukotriene C4 (LTC4) is also quantified using an ELISA kit on appropriately diluted supernatant samples (determined empirically for each donor cell population so that the sample measurement falls within the standard curve) following the supplier's instructions.
On to `CC(C)Oc1ccc(Nc2nc(Nc3ccc4oc(CO)cc4c3)ncc2F)cc1` [Compound R926705], for which the IC50 was determined as 533 nM.
The same measure, in the same setting: as for `CNC(=O)c1cc2cc(Nc3ncc(F)c(Nc4ccc(C(C)(C)C)cc4)n3)ccc2o1` [Compound R926494], the figure is 78 nM.

The test system is the same in another test. Kind of test: CHMC high cell density IgE activation: histamine. In kind it is cell-based.
Conditions: not given
On the procedure: as §1
`CC(C)Oc1ccc(Nc2nc(Nc3ccc4oc(CO)cc4c3)ncc2F)cc1` [Compound R926705] yielded an IC50 of 641 nM.
Still for that read-out and setting: as for `CNC(=O)c1cc2cc(Nc3ncc(F)c(Nc4ccc5c(c4)OCCO5)n3)ccc2o1` [Compound R926496], the figure is 809 nM; as for `CNC(=O)c1cc2cc(Nc3ncc(F)c(Nc4ccc(C(C)(C)C)cc4)n3)ccc2o1` [Compound R926494], greater than 10000 nM.

For the next test the test system is unchanged. Briefly: CHMC low cell density ionomycin activation: tryptase assay. In kind it is cell-based. The note with it: Low Density CHMC, ionomycin activation, tryptase release; read-out: CHMC Ionomycin Tryptase IC50.
Take `CC(C)Oc1ccc(Nc2nc(Nc3ccc4oc(CO)cc4c3)ncc2F)cc1` [Compound R926705]: the IC50 was greater than 10 µM.
For the compound `CNC(=O)c1cc2cc(Nc3ncc(F)c(Nc4ccc5c(c4)OCCO5)n3)ccc2o1` [Compound R926496], the IC50 was greater than 10 µM.
For `CNC(=O)c1cc2cc(Nc3ncc(F)c(Nc4ccc(C(C)(C)C)cc4)n3)ccc2o1` [Compound R926494], the IC50 was greater than 10 µM.

A further test has the same test system. Kind of test: CHMC high cell density IgE activation: LTC4. The class given is cell-based.
Conditions: not given
On the procedure:
as §1
As to `CC(C)Oc1ccc(Nc2nc(Nc3ccc4oc(CO)cc4c3)ncc2F)cc1` [Compound R926705], the IC50 stood at 494 nM.
Same read-out and setting: for `CNC(=O)c1cc2cc(Nc3ncc(F)c(Nc4ccc5c(c4)OCCO5)n3)ccc2o1` [Compound R926496] the value was 414 nM.
Compound `CNC(=O)c1cc2cc(Nc3ncc(F)c(Nc4ccc(C(C)(C)C)cc4)n3)ccc2o1` [Compound R926494] gave an IC50 of 326 nM.

Another test shares this test system. Briefly: CHMC high cell density IgE activation: tryptase.
Conditions: not given
In kind it is cell-based. The procedure: as §1
Regarding `CC(C)Oc1ccc(Nc2nc(Nc3ccc4oc(CO)cc4c3)ncc2F)cc1` [Compound R926705], the IC50 is 1260 nM.
Compound `CNC(=O)c1cc2cc(Nc3ncc(F)c(Nc4ccc5c(c4)OCCO5)n3)ccc2o1` [Compound R926496] had an IC50 of 533 nM.
`CNC(=O)c1cc2cc(Nc3ncc(F)c(Nc4ccc(C(C)(C)C)cc4)n3)ccc2o1` [Compound R926494]: the IC50 was greater than 2000 nM.

In a further test the test system is Primary T-cells. Kind of test: Primary T-cell cytokine production (αCD3/αCD28): IL-2. The class given is cell-based, human. The note with it: read-out: 1° T-Cell IL2 IC50. The procedure: 2E8-4E8 PBMC or proliferating T cells grown in rIL-2 from healthy human donors were suspended in PBS were spun down (1500 rpm, 8-10 minutes) and resuspended in 100 ml RPMI Complete media (1% Pen-Strep, 1% L-Glutamine, 10 mM HEPES). The cells were plated in T175 flasks (37° C., 5% CO2) and monocytes were allowed to adhere for 2-3 hours. After monocyte attachment, non-adherent cells were harvested, counted by hemocytometer, washed several times with PBS then resuspended in Yssels Complete Media (Modified IMDM Media with 1% Human AB Serum, 1% Pen-Strep, 1% L-Glutamine, 10 mM HEPES) at […]. 90 uL of the cell dilution were then added to compounds diluted to 2× in Yssel's media and incubated for 30 minutes at 37° C. (5% CO2). After this preincubation step the compound/cell mixture was transferred to stimulation plates, as described below.
Stimulation plates were prepared by coating 96 well plates with 5 μg/ml αCD3 (BD PharMingen, Catalog #555336)+10 μg/ml αCD28 (Beckman Coulter, Catalog #IM1376) in PBS (no Ca^2+/Mg^2+) at 37° C. (5% CO2) for at 3-5 hours. After incubation with the stimulation antibodies, the cocktail was removed and the plates washed 3 times with PBS prior to addition of the primary T cell/compound mixture.
The compound/cell mixture was transferred to the stimulation plates and incubated for 18 hr at 37° C. (5% CO2). After the cell stimulation, ˜150 μl supernatant were transferred from each well into 96-well filter plates (Coming PVDF Filter Plates) spun down (2000 rpm, 2-3 minutes) and either used immediately for ELISA or LUMINEX measurements or frozen down at −80° C. for future use.
IL-2 ELISAs were performed using the Quantikine Human IL-2 ELISA kit (R&D Systems, Catalog # D2050) as described by the manufacturer and absorption was measured on a spectrophotometer at 450 nm wavelength. Blank values were substracted and absorbances were converted to pg/mL based on the standard curve.
Luminex immunoassay multiplexing for TNF, IL-2, GMSCF, IL-4 and IFNg was performed essentially as described by the manufacturer (Upstate Biotechnology). Essentially 50 uL of sample was diluted into 50 uL assay diluent and 50 uL incubation buffer, then incubated with 100 uL of the diluted detection antibody for 1 hr at RT in the dark. The filter plate was washed 2× in Wash Buffer, then incubated with 100 uL of the diluted secondary reagent (SAV-RPE) for 30 min at RT in the dark. Finally the plates were washed 3 times and bead identification and RPE fluorescent measured by the Luminex instrument.
Varied concentrations of compound were compared to solvent only to determine the inhibition of T-cell activation IC50 of each compound.
Regarding `CNC(=O)COc1cccc(Nc2ncc(F)c(Nc3ccc4cc[nH]c4c3)n2)c1` [Compound R926745], the IC50 is 1.5 µM.
As for `Oc1cccc(Nc2nc(Nc3ccc(OCc4nc(-c5ccccc5)no4)cc3)ncc2F)c1` [Compound R935134], the IC50 worked out at 36.1 µM.
The same measure, in the same setting: as for `Cc1noc(COc2ccc(Nc3nc(Nc4ccc(OC(C)C)cc4)ncc3F)cc2)n1` [Compound R935144], the figure is 13.3 µM.

The next test has as its system cultured human mast cells (CHMC). Briefly: CHMC high cell density IgE activation: TNFalpha. The class given is cell-based. The note with it: read-out: CHMC high density TNF-alpha. The procedure: as §1
As for `CC(C)Oc1ccc(Nc2nc(Nc3ccc4oc(CO)cc4c3)ncc2F)cc1` [Compound R926705], the IC50 was greater than 10 µM.
On the same count and under the same terms, for `CNC(=O)c1cc2cc(Nc3ncc(F)c(Nc4ccc5c(c4)OCCO5)n3)ccc2o1` [Compound R926496] the value was 0.622 µM; for `CNC(=O)c1cc2cc(Nc3ncc(F)c(Nc4ccc(C(C)(C)C)cc4)n3)ccc2o1` [Compound R926494], greater than 10 µM.

Another test shares this test system. Briefly: CHMC low cell density IgE activation: tryptase assay. The class given is cell-based. The note with it: Low Density CHMC, anti-IgE activation, tryptase release; read-out: CHMC anti-IgE Tryptase IC50. In outline:
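Low-density CHMC assay: donor-adjusted 1000-1500 cells/well, MT buffer, 1 hr 37° C preincubation; anti-IgE stimulus 30 min 37° C versus MT-only controls; supernatant tryptase by substrate, 30 min RT.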
For `CC(C)Oc1ccc(Nc2nc(Nc3ccc4oc(CO)cc4c3)ncc2F)cc1` [Compound R926705], the IC50 is 263 nM.
In the case of `CNC(=O)c1cc2cc(Nc3ncc(F)c(Nc4ccc5c(c4)OCCO5)n3)ccc2o1` [Compound R926496], the IC50 was determined as 571 nM.
In the case of `CNC(=O)c1cc2cc(Nc3ncc(F)c(Nc4ccc(C(C)(C)C)cc4)n3)ccc2o1` [Compound R926494], the IC50 was found to be 313 nM.
